Test system: digoxin antibody
Type: binding
Method: Measurement of digoxin-like immunoreactivity: Radioimmunoassay was performed with digoxin RIA kit obtained from Amersham International (Amersham, Buckinghamshire, England). Assay conditions were as recommended by the manufacturer.
Digoxin radioimmunoassay was performed using commercially available kit. The concentration of the partially purified lens DLC was determined from its ability to inhibit [^3H]-ouabain binding assuming identical affinity to the ouabain receptor as ouabain and MW of 372.

| Structure (SMILES) | Cross reactivity [%] | Digoxin-like immunoreactive material |
| --- | --- | --- |
| C[C@H]1O[C@@H](O[C@H]2[C@@H](O)C[C@H](O[C@H]3[C@@H](O)C[C@H](O[C@H]4CC[C@@]5(C)[C@H](CC[C@@H]6[C@@H]5C[C@@H](O)[C@]5(C)[C@@H](C7=CC(=O)OC7)CC[C@]65O)C4)O[C@@H]3C)O[C@@H]2C)C[C@H](O)[C@@H]1O [Digoxin] | 100 | 10,000 ng/ml |
| C[C@@H]1O[C@@H](O[C@H]2C[C@@H](O)[C@]3(CO)[C@H]4[C@H](O)C[C@]5(C)[C@@H](C6=CC(=O)OC6)CC[C@]5(O)[C@@H]4CC[C@]3(O)C2)[C@H](O)[C@H](O)[C@H]1O [Ouabain] | 0.012 | 1.21 ng/mL |
| C[C@]12CC[C@H](O)C[C@H]1CC[C@@H]1[C@@H]2CC[C@]2(C)[C@@H](c3ccc(=O)oc3)CC[C@]12O [Bufalin] | 0.045 | 4.53 ng/mL |

Source: patent EP0671924B1, “DIGITALIS-LIKE COMPOUNDS” (YISSUM RESEARCH DEVELOPMENT COMPANY OF THE HEBREW …, priority 1992, dated 1994)
